Experimental data published in ChEMBL document CHEMBL1154937, “Radiosynthesis of novel carbon-11-labeled triaryl ligands for cannabinoid-type 2 receptor” (Bioorg Med Chem Lett, 2010).

Experiments:
Cannabinoid receptor 2 [1] = target: T1, Cannabinoid receptor 2 (Rattus norvegicus, UniProt Q9QZN9); assay: Binding affinity to rat brain CB2 receptor
T1 sequence (Q9QZN9 whole entry): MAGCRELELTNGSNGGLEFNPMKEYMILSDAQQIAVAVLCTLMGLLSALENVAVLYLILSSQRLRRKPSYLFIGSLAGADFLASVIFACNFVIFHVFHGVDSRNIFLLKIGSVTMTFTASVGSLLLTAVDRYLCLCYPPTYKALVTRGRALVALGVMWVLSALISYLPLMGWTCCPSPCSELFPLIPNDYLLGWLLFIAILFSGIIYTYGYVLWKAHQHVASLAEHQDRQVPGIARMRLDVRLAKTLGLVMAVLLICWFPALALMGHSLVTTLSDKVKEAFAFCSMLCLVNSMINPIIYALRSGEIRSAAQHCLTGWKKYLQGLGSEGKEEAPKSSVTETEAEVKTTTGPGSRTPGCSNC

Brain [2] = assay: Drug uptake in […] brain at 8 MBq/200 mL, iv after 5 mins; type: ADME, organism-based; conditions: in vivo
Blood [3] = assay: Drug uptake in […] blood at 8 MBq/200 mL, iv after 15 mins; type: ADME, organism-based; conditions: in vivo, 0.25 h
Brain [4] = assay: Drug uptake in […] brain at 8 MBq/200 mL, iv after 15 mins; type: ADME, organism-based; conditions: in vivo, 0.25 h
Blood [5] = assay: Drug uptake in […] blood at 8 MBq/200 mL, iv after 5 mins; type: ADME, organism-based; conditions: in vivo
Brain [6] = assay: Drug uptake in […] brain at 8 MBq/200 mL, iv after 60 mins; type: ADME, organism-based; conditions: in vivo, 1 h
Blood [7] = assay: Drug uptake in […] blood at 8 MBq/200 mL, iv after 30 mins; type: ADME, organism-based; conditions: in vivo, 0.5 h
Blood [8] = assay: Drug uptake in […] blood at 8 MBq/200 mL, iv after 60 mins; type: ADME, organism-based; conditions: in vivo, 1 h
Brain [9] = assay: Drug uptake in […] brain at 8 MBq/200 mL, iv after 1 min; type: ADME, organism-based; conditions: in vivo
Blood [10] = assay: Drug uptake in […] blood at 8 MBq/200 mL, iv after 1 min; type: ADME, organism-based; conditions: in vivo
Brain [11] = assay: Drug uptake in […] brain at 8 MBq/200 mL, iv after 30 mins; type: ADME, organism-based; conditions: in vivo, 0.5 h
Cannabinoid receptor 1 = Cannabinoid receptor 1 (Homo sapiens, UniProt P21554); assay: Binding affinity to CB1 receptor
Cannabinoid receptor 2 [12] = target: Cannabinoid receptor 2 (Homo sapiens, UniProt P34972); assay: Binding affinity to human CB2 receptor
Chain of Cannabinoid receptor 2 (Homo sapiens, UniProt P34972) (P34972 whole entry): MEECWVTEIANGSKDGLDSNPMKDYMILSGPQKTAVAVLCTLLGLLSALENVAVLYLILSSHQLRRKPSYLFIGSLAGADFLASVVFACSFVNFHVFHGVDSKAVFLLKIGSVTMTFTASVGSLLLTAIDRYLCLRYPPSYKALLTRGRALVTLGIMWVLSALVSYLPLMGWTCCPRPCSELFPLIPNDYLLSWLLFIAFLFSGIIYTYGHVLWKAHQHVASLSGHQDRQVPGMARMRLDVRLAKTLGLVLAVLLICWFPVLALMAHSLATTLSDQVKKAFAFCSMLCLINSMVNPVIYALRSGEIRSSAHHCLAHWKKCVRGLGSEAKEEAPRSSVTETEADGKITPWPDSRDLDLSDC

Chain of Cannabinoid receptor 1 (P21554 whole entry): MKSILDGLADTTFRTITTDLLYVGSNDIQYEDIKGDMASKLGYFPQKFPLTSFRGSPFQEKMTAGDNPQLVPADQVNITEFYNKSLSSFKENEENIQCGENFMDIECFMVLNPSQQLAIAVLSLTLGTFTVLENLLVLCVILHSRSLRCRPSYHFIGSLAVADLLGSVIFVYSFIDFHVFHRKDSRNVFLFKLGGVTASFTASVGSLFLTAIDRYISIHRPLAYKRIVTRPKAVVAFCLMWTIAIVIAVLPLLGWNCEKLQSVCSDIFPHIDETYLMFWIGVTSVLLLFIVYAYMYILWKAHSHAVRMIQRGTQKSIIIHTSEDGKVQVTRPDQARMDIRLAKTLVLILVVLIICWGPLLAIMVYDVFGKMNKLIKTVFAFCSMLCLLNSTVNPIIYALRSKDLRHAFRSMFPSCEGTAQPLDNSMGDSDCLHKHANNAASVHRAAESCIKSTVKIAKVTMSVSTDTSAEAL

Compound | Ki (Cannabinoid receptor 2 [1]) | Drug uptake (Brain [2]) | Drug uptake (Blood [3]) | Drug uptake (Brain [4]) | Drug uptake (Blood [5]) | Drug uptake (Brain [6]) | Drug uptake (Blood [7]) | Drug uptake (Blood [8]) | Drug uptake (Brain [9]) | Drug uptake (Blood [10]) | Drug uptake (Brain [11]) | Ki (Cannabinoid receptor 1) | Ki (Cannabinoid receptor 2 [12])
COc1cc(C(O)c2cccs2)cc(O[11CH3])c1-c1cc(Cl)cc(Cl)c1 (stereo unspecified) | 0.27 nM | 1.87% | 2.25% | 1.5% | 2.12% | 0.65% | 2.38% | 2.27% | 1.93% | 3.9% | 1.09% | – | –
COc1cc(C(O)c2cccs2)cc(OC)c1-c1cc(Cl)cc(Cl)c1 (stereo unspecified) | – | – | – | – | – | – | – | – | – | – | – | > 1000 nM | –
[11CH3]Oc1cc(C(O)c2cccs2)cc(O)c1-c1cc(Cl)cc(Cl)c1 (stereo unspecified) | – | 2.07% | 0.7% | 1.77% | 1.18% | 0.45% | 0.35% | 0.37% | 1.94% | 2.2% | 0.96% | – | –
COc1cc(C(=O)c2cccs2)cc(O[11CH3])c1-c1cc(Cl)cc(Cl)c1 | – | 1.29% | 3.45% | 1.1% | 2.93% | 0.62% | 3.42% | 3.38% | 1.2% | 2.71% | 0.85% | – | –
[11CH3]Oc1cc(C(=O)c2cccs2)cc(O)c1-c1cc(Cl)cc(Cl)c1 | 2.32 nM | 1.63% | 0.63% | 1.01% | 1% | 0.18% | 0.36% | 0.21% | 1.54% | 1.56% | 0.56% | – | –
CCCCOc1c(O[11CH3])ccc2cc(C(=O)NC3CCCCC3)c(=O)[nH]c12 | – | – | – | – | – | – | – | – | – | – | – | – | 9.6 nM
CCCCOc1c(OCC[18F])ccc2cc(C(=O)NC3CCCCC3)c(=O)[nH]c12 | – | – | – | – | – | – | – | – | – | – | – | – | 35.8 nM
COc1ccc(S(=O)(=O)c2ccc(C(C)NS(C)(=O)=O)cc2)c(S(=O)(=O)c2ccc(O[11CH3])cc2)c1 (stereo unspecified) | – | – | – | – | – | – | – | – | – | – | – | – | 4.5 nM
